Assay results published in US12582632B2, “Inhibition of neurological injuries due to infections via administration of Butanetap and analogs thereof” (priority 2021, dated 2026).

Tests used:
[1] = Plasma and brain levels in mice by dose; type: in vivo
Excerpt: (§2) The doses are provided in mg/kg; mg dose for a 70 kg human; plasma levels in mice and humans (ng/ml); plasma levels in humans (nM); brain levels in mice and humans (ng/gram); oral human efficacious and safe dose (mg/day); IP/P human efficacious and safe dose (mg/day); and IV human efficacious and safe dose (mg/day).

[2] = system: APP and its fragments; test: APP and fragments in hippocampus of APP/PS1 transgenic AD mice; type: in vivo
Excerpt: GAPDH and Synaptophysin were loading controls. FIG. 2 also includes a collection of graphs showing relative density of APP plotted against control and time after butanetap treatment; relative density of CTFβ plotted against control and time after butanetap treatment; relative density of CTFα plotted against control and time after butanetap treatment; Aβ42 levels in brain tissue plotted against control and time after butanetap treatment; and Aβ40 levels in brain tissue plotted against control and time after butanetap treatment. Finally, FIG. 2 also includes a Western blot showing levels of APP, NSB, CTFβ, and CTFα after butanetap treatment over time (minutes).

[3] = system: Tau in transgenic neo-natal human Tau mice cells; test: Tau in vitro; type: cell-based; conditions: cells treated for 4 days, antibodies against Tau and phospho-Tau, FIG. 3
Experimental: (§1) The cells were treated for 4 days with butanetap harvested, solubilized, and tested with antibodies against Tau and phospho-Tau. • B. FIG. 4, Tau in vivo. […] After 6 weeks, mice were killed and the total and insoluble (aggregated) tau was measured. […] Precipitated tau corresponds to tangles in the brain.

[4] = system: insoluble (aggregated) tau; test: Tau in vivo, hTau mice, ELISA; conditions: in mouse chow, 6 weeks; three of the 4 ELISA assays, FIG. 4
Experimental: as §1

[5] = system: neuroblastoma cells (SH-SY5Y); test: Gingipain-induced cell aggregation; type: cell-based; conditions: 24 hours RgpB (10 ug/ml), Kgp (10 ug/ml), or both, FIG. 11
[6] = system: Ts65dn mouse model of Down syndrome (DS); test: Ts65dn mouse model of Down syndrome; type: in vivo; conditions: Ts65dn mice
Excerpt: Butanetap's efficacy in treating neurodegeneration in animal models: Restored memory and learning in an APP/PS1 transgenic (tg) mouse model of AD; Restored memory and learning in a Ts65dn mouse model of Down syndrome (DS) [W. Mobley, UCSD, submitted 2020]; Preserved the retina in acute glaucoma [J Sundstrom; Hershey Medical School]; Restored colonic motility in a human SNCAA53T tg mouse model of PD (Kuo et. al., Am J Neurodegener Dis 2019; 8(1):1-15 www.AJND.us/ISSN:216 591X/AJND0086080: Translational inhibition of α-synuclein by Butanetap (Posiphen) normalizes distal colon motility in transgenic Parkinson mice); Preserved memory and learning in traumatic brain injury rats (M-F Chesselet, submitted 2020).

[7] = molecular target: APP or aSYN mRNA to IRP1 (Homo sapiens, UniProt P21399); test: Binding of mRNA IRE to IRP1
APP or aSYN mRNA to IRP1, sequence (P21399 whole entry): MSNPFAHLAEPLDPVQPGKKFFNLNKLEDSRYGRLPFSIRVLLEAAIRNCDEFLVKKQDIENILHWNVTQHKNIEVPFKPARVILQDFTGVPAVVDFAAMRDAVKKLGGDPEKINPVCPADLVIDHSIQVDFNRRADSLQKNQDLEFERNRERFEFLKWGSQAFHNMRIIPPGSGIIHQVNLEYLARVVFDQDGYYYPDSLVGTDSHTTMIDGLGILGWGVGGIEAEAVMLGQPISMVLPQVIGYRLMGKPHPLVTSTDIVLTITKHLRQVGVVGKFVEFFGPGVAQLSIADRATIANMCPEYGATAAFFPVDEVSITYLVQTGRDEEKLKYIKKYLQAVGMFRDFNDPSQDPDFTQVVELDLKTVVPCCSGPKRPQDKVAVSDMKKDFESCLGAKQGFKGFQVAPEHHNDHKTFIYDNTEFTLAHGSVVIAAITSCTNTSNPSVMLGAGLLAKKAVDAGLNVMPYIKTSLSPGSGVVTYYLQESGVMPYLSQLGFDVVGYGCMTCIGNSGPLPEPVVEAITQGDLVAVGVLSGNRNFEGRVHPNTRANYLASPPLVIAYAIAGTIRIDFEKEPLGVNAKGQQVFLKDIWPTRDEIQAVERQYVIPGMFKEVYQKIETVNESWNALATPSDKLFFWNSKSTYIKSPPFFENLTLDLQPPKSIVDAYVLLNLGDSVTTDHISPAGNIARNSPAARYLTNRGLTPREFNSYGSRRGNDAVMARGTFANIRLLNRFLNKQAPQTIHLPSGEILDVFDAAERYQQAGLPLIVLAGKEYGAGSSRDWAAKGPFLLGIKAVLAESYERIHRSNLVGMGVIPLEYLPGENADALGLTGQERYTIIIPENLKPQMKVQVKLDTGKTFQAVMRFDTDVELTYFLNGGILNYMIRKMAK
Excerpt: Therefore, the original data concerning the effects of butanetap working under all conditions is wrong. (See, e.g., Lahiri, et al., “The Experimental Alzheimer's Disease Drug butanetap [(+)-Phenserine] Lowers Amyloid-β Peptide Levels in Cell Culture and Mice”, J. Pharmacol. Ther. 320:386-396, 2007 (hereby incorporated by reference)). It only works in stressed cells, dividing cells and sick cells, e.g., those cells that have high levels of iron.
Butanetap augments the binding of APP mRNA IRE to IRP1 under high iron conditions and prevents APP from being translated excessively, restoring homeostasis. The same mechanism works for all neurotoxic aggregating proteins tested to date: Butanetap works under iron-dishomeostasis to restore homeostasis.

[8] = cited from earlier work
[9] = system: APP, Tau, αSYN and inflammatory markers in CSF; conditions: MCI subjects, cited from earlier work
[10] = Plasma and brain levels in humans, calculated and extrapolated from mice data
Excerpt: as §2

[11] = system: neurotoxic aggregating proteins; test: Neurotoxic aggregating proteins in cerebral cortex of transgenic AD and PD animals
[12] = dose 0.014 mg/kg, 1.0 mg for 70 kg
[13] = dose 0.07 mg/kg, 4.9 mg for 70 kg
[14] = dose 0.143 mg/kg, 10.0 mg for 70 kg
[15] = dose 0.16 mg/kg, 11.2 mg for 70 kg
[16] = dose 0.21 mg/kg, 14.7 mg for 70 kg
[17] = dose 0.23 mg/kg, 16.1 mg for 70 kg
[18] = dose 0.29 mg/kg, 20.3 mg for 70 kg
[19] = dose 0.34 mg/kg, 23.8 mg for 70 kg
[20] = dose 0.57 mg/kg, 39.9 mg for 70 kg
[21] = dose 1 mg/kg, 70.0 mg for 70 kg
[22] = dose 1.14 mg/kg, 79.8 mg for 70 kg
[23] = dose 1.71 mg/kg, 119.7 mg for 70 kg
[24] = dose 2.13 mg/kg, 149.1 mg for 70 kg
[25] = dose 2.29 mg/kg, 160.3 mg for 70 kg

CN1CC[C@]2(C)c3cc(OC(=O)Nc4ccccc4)ccc3N(C)C12 (stereo partly drawn) [butanetap, (3aR)-1,3a,8-trimethyl-1,2,3,3a,8,8a-hexahydropyrrolo[2,3-b]indol-5-yl phenylcarbamate]
Brain levels in mice ([1]; dose 0.014 mg/kg): 0 ng/gram | Brain levels in mice ([1]; dose 0.07 mg/kg): 0 ng/gram | Brain levels in mice ([1]; dose 0.143 mg/kg): 0 ng/gram | Brain levels in mice ([1]; dose 0.16 mg/kg): 0 ng/gram | Brain levels in mice ([1]; dose 0.21 mg/kg): 0 ng/gram | Brain levels in mice ([1]; dose 0.23 mg/kg): 0 ng/gram | Brain levels in mice ([1]; dose 0.29 mg/kg): 0 ng/gram | Brain levels in mice ([1]; dose 0.34 mg/kg): 0 ng/gram | Brain levels in mice ([1]; dose 0.57 mg/kg): 0 ng/gram | Brain levels in mice ([1]; dose 1 mg/kg): 16 ng/gram | Brain levels in mice ([1]; dose 1.14 mg/kg): 16.8 ng/gram | Brain levels in mice ([1]; dose 1.71 mg/kg): 0 ng/gram | Brain levels in mice ([1]; dose 2.13 mg/kg): 31.2 ng/gram | Brain levels in mice ([1]; dose 2.29 mg/kg): 0 ng/gram | Brain levels in mice ([1]; dose 3 mg/kg): 48 ng/gram | Brain levels in mice ([1]; dose 5 mg/kg): 80 ng/gram | Brain levels in mice ([1]; dose 10 mg/kg): 160 ng/gram | Brain levels in mice ([1]; dose 20 mg/kg): 400 ng/gram | Brain levels in mice ([1]; dose 30 mg/kg): 800 ng/gram | Brain levels in mice ([1]; dose 40 mg/kg): 1200 ng/gram | Brain levels in mice ([1]; dose 50 mg/kg): 1680 ng/gram | Brain levels in mice ([1]; dose 60 mg/kg): 2400 ng/gram | Brain levels in mice ([1]; dose 80 mg/kg): 4800 ng/gram | Brain levels in mice ([1]; dose 100 mg/kg): 8000 ng/gram | APP and its fragments (all related peptides) in hippocampus ([2]; FIG. 2): reduced | duration of reduction of APP and related peptides after the last dose ([2]; hippocampus): at least 9 hours | Tau expression [3]: reduces | amount of insoluble tau [4]: significant reduction | gingipain-induced cell aggregation [5]: blocks | memory and learning [6]: Restored | binding of APP mRNA IRE to IRP1 ([7]; under high iron conditions): augments | binding of APP or aSYN mRNA to IRP1 ([7]; under iron or metal-homeostasis): does not increase | tolerability ([8]; doses up to 4×60 mg daily×10 days): well tolerated | terminal half-life ([8]; plasma, all doses): 4.3 to 4.7 h | levels of APP, Tau, and αSYN in the cerebrospinal fluid (CSF) ([9]; 4×60 mg/day): normalized | CSF Aβ42 [9]: trend to lower | CSF levels of p-tau [9]: significantly lowered | CSF levels of sAPPα [9]: significantly lowered | CSF levels of sAPPβ [9]: significantly lowered | CSF levels of specific inflammatory markers [9]: significantly lowered | CSF levels of t-tau [9]: significantly lowered | half-life in CSF [9]: > 12 h | Brain levels in humans [10, 12]: 8 ng/gram | Plasma levels in human [10, 12]: 1 ng/mL | Plasma levels in humans [10, 12]: 3 nM | Brain levels in humans [10, 13]: 16 ng/gram | Plasma levels in human [10, 13]: 2 ng/mL | Plasma levels in humans [10, 13]: 6 nM | Brain levels in humans [10, 14]: 29.6 ng/gram | Plasma levels in human [10, 14]: 3.7 ng/mL | Plasma levels in humans [10, 14]: 10 nM | Brain levels in humans [10, 15]: 45.6 ng/gram | Plasma levels in human [10, 15]: 5.7 ng/mL | Plasma levels in humans [10, 15]: 17 nM | Brain levels in humans [10, 16]: 92 ng/gram | Plasma levels in human [10, 16]: 11.5 ng/mL | Plasma levels in humans [10, 16]: 32 nM | Brain levels in humans [10, 17]: 103.2 ng/gram | Plasma levels in human [10, 17]: 12.9 ng/mL | Plasma levels in humans [10, 17]: 38 nM | Brain levels in humans [10, 18]: 112 ng/gram | Plasma levels in human [10, 18]: 14 ng/mL | Plasma levels in humans [10, 18]: 41 nM | Brain levels in humans [10, 19]: 160 ng/gram | Plasma levels in human [10, 19]: 20 ng/mL | Plasma levels in humans [10, 19]: 58 nM | Brain levels in humans [10, 20]: 336 ng/gram | Plasma levels in human [10, 20]: 42 ng/mL | Plasma levels in humans [10, 20]: 123 nM | Brain levels in humans [10, 21]: 720 ng/gram | Plasma levels in human [10, 21]: 90 ng/mL | Plasma levels in humans [10, 21]: 264 nM | Brain levels in humans [10, 22]: 960 ng/gram | Plasma levels in human [10, 22]: 120 ng/mL | Plasma levels in humans [10, 22]: 352 nM | Brain levels in humans [10, 23]: 1600 ng/gram | Plasma levels in human [10, 23]: 200 ng/mL | Brain levels in humans [10, 24]: 1920 ng/gram | Plasma levels in human [10, 24]: 240 ng/mL | Brain levels in humans [10, 25]: 3040 ng/gram | Plasma levels in human [10, 25]: 380 ng/mL | neurotoxic aggregating proteins [11]: not inhibit
